We go through 23 compounds from publication PMC6269071, “New Quinoxaline Derivatives as Potential MT1 and MT2 Receptor Ligands” (Molecules, 2012).

For assay [1], the target named is T1, human melatonin MT1 receptor (Homo sapiens, UniProt P48039).
T1 construct: expressed in transfected cells; host or cells: HEK or CHO cells, stably transfected; membrane preparations
In words: 2-[125I]Iodomelatonin competitive binding, MT1. The following applies: 2-[125I]Iodomelatonin radioligand; membranes of HEK or CHO cells; mean of at least three experiments; read-out: MT1 Ki (µM) ± SEM. The protocol: (§1) The binding affinity of the newly synthesized quinoxalines for MT1 and MT2 receptors was tested through competitive binding experiments using 2-[^125I]Iodomelatonin as radioligand.
(§2) Grown at confluence at 37 °C ([…]/5% CO2), they were harvested in PBS containing EDTA 2 mM and centrifuged at 1,000 g for 5 min (4 °C). The resulting pellet was suspended in Tris 5 mM (pH 7.5), containing EDTA 2 mM and homogenized using a Kinematica polytron. The homogenate was then centrifuged (95,000 g, 30 min, 4 °C) and the resulting pellet suspended in 75 mM Tris (pH 7.5), 12.5 mM MgCl2 and 2 mM EDTA. Aliquots of membrane preparations were stored at −80 °C until use.
(§3) 2-[^125I]Iodomelatonin binding assay conditions are essentially as previously described. Briefly, binding is initiated by the addition of membrane preparations from stable transfected HEK or CHO cells diluted in binding buffer (50 mM Tris-HCl buffer, pH 7.4, containing 5 mM MgCl2) to 2-[^125I]Iodomelatonin (25 or 200 pM for MT1 and MT2 receptors, respectively, expressed in HEK cells or 20 pM for MT1 and MT2 receptors expressed in CHO cells) and the tested drug. […] After 120 min of incubation at 37 °C, the reaction was stopped by rapid filtration through GF/B filters presoaked in 0.5% (v/v) polyethylenimine. Filters were washed three times with 1 mL of ice-cold 50 mM Tris-HCl buffer, pH 7.4. Data from dose-response curves (seven concentrations in duplicate) were analyzed using the program PRISM (Graph Pad Software Inc., San Diego, CA, USA) to yield IC50 (inhibitory concentration 50). Results were expressed as Ki using the Cheng and Prusoff equation: Ki = IC50/[1 + (L/KD)], where [L] is the concentration of radioligand used in the assay and KD, the dissociation constant of the radioligand characterizing the membrane preparation.

Assay [2] has as its target T2, human melatonin MT2 receptor (Homo sapiens, UniProt P49286).
T2 construct: expressed in transfected cells; host or cells: HEK or CHO cells, stably transfected; membrane preparations
T2 sequence (P49286 1-362): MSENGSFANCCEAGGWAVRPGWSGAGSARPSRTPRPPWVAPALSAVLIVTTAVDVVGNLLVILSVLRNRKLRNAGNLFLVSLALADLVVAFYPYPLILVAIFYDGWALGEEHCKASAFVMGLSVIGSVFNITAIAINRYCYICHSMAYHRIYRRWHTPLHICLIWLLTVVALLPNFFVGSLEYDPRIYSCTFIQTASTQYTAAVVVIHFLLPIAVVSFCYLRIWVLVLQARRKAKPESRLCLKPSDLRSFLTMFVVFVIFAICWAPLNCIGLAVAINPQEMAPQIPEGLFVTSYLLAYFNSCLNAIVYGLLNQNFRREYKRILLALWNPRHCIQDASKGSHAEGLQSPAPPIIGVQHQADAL
In words: 2-[125I]Iodomelatonin competitive binding, MT2. The following applies: for Ki: 2-[125I]Iodomelatonin radioligand, membranes of HEK or CHO cells, mean of at least three experiments, read-out: MT2 Ki (µM) ± SEM. As to the method:
as §1, §2, §3

Assay [3] addresses T3, MT2 receptor (CHO-MT2 membranes) (Homo sapiens, UniProt P49286).
T3 construct: expressed in transfected cells; host or cells: CHO cells, transfected; membranes
T3 sequence (P49286 1-362): T2 sequence (P49286 1-362)
Nature of the assay: [35S]GTPγS binding assay, MT2. The following applies: for functional profile at MT2 / EC50: [35S]GTPγS binding; for EC50: CHO membranes, read-out: MT2 EC50 ± SEM. Format: biochemical. As to the method:
as §2
[^35S]GTPγS binding assay was performed according to published methodology. Briefly, membranes from transfected CHO cells expressing MT1 and MT2 receptor subtypes and compounds were diluted in binding buffer (20 mM HEPES, pH 7.4, 100 mM NaCl, 3 μM GDP, 3 mM MgCl2, and 20 μg/mL saponin). Incubation was started by the addition of 0.2 nM [^35S]GTPγS to membranes (20 μg/mL) and drugs, and further followed for 1h at room temperature.

T1 sequence (P48039 whole entry): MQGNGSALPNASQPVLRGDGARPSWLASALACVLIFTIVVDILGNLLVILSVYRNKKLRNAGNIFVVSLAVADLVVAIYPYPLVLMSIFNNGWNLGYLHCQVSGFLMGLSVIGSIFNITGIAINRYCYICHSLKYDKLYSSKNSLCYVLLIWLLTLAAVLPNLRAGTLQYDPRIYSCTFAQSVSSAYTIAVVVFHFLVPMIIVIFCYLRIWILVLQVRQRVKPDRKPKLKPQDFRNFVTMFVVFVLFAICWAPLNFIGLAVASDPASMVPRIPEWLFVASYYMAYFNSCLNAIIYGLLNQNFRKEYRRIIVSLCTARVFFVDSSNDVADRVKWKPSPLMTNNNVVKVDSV

Usually Ki stands for a measure of affinity in units of concentration, obtained from inhibition or displacement. `COc1nc2ccccc2nc1CNC(C)=O` [Compound 3a, N-(3-Methoxyquinoxalin-2-ylmethyl)-acetamide]: the Ki worked out at 2.98 ± 0.36 µM in assay [1] and 0.88 ± 0.3 µM in assay [2].
In the same order, the values of `CCC(=O)NCc1nc2ccccc2nc1OC` [Compound 3b, N-(3-Methoxyquinoxalin-2-ylmethyl)-propionamide] are 2.6 ± 0.23 µM and 0.66 ± 0.01 µM.
In the same order, the values of `CCCC(=O)NCc1nc2ccccc2nc1OC` [Compound 3c, N-(3-Methoxyquinoxalin-2-ylmethyl)-butyramide] are 0.75 ± 0.36 µM and 1.1 ± 0.03 µM.
Take `COc1nc2ccccc2nc1CNC(=O)C(C)C` [Compound 3d, N-(3-Methoxyquinoxalin-2-ylmethyl)-isobutyramide]: the Ki stood at 1.23 ± 0.32 µM in assay [1] and 0.47 ± 0.02 µM in assay [2].
With `COc1nc2ccccc2nc1CNC(=O)c1ccccc1` [Compound 3e, N-(3-Methoxy-quinoxalin-2-ylmethyl)-benzamide], the inhibition constant Ki in assay [1] and in assay [2] was > 1000 µM in each case.
For the compound `CCNC(=O)NCc1nc2ccccc2nc1OC` [Compound 3f, Ethyl-3-(3-methoxyquinoxalin-2-ylmethyl)urea], the Ki is > 1000 µM in assay [1] and 0.4 ± 0.13 µM in assay [2].
In the same order, the values of `CCCNC(=O)NCc1nc2ccccc2nc1OC` [Compound 3g, 1-(3-Methoxyquinoxalin-2-ylmethyl)-3-propylurea] are > 1000 µM and 0.44 µM.
Taken in the same sequence, the figures for `COc1nc2ccccc2nc1CNC(=O)NC(C)C` [Compound 3h, 1-Isopropyl-3-(3-methoxyquinoxalin-2-ylmethyl)urea] were > 1000 µM and > 1000 µM.
For the compound `COc1nc2ccccc2nc1CNC(=O)Nc1ccccc1` [Compound 3i, 1-(3-Methoxyquinoxalin-2-ylmethyl)-3-phenyl-urea], the Ki in assay [1] and in assay [2] was > 1000 µM throughout.
The term EC50 denotes the concentration that produces a half-maximal response. For `COc1nc2ccc(NC(C)=O)cc2nc1OC` [Compound 6a, N-(2,3-Dimethoxyquinoxalin-6-yl)acetamide], the Ki is 20 ± 1.82 µM in assay [1] and 0.08 µM in assay [2]. Also, the “functional profile at MT2” value in assay [3] was “antagonist”. Further, the 50% effective concentration (EC50) in assay [3] was > 10 µM. In addition, the MT2/MT1 selectivity ratio in assay [2] (ratio of binding affinities MT1 vs MT2) came out at 250.
Consider `CCC(=O)Nc1ccc2nc(OC)c(OC)nc2c1` [Compound 6b, N-(2,3-Dimethoxyquinoxalin-6-yl)propionamide], for which the inhibitory constant (Ki) in assay [1] was found to be 17.6 ± 7.81 µM; in assay [2], 4.36 ± 1.22 µM.
For orientation: Emax means the maximal effect, on the per cent scale that the assay sets. For `CCCC(=O)Nc1ccc2nc(OC)c(OC)nc2c1` [Compound 6c, N-(2,3-Dimethoxyquinoxalin-6-yl)butyramide], the inhibition constant Ki in assay [1] is 11.5 ± 2.8 µM. In addition, in assay [3], the “functional profile at MT2” value is recorded as “full agonist” and the concentration giving a half-maximal response (EC50) is 1.3 ± 0.26 µM. The Emax in assay [3] (read-out: MT2 Emax ± SEM (%)) is 84 ± 9.5%. Further, the Ki in assay [2] was determined as 1.35 ± 0.31 µM.
As for `COc1nc2ccc(NC(=O)C(C)C)cc2nc1OC` [Compound 6d, N-(2,3-Dimethoxyquinoxalin-6-yl)isobutyramide], the Ki in assay [1] came to 3.4 ± 1.37 µM; in assay [2], 10.5 ± 2.96 µM.
Taken in the same sequence, the figures for `COc1nc2ccc(NC(=O)c3ccccc3)cc2nc1OC` [Compound 6e, N-(2,3-Dimethoxyquinoxalin-6-yl)benzamide] were > 1000 µM and > 1000 µM.
In the same order, the values of `CCNC(=O)Nc1ccc2nc(OC)c(OC)nc2c1` [Compound 6f, 1-(2,3-Dimethoxyquinoxalin-6-yl)-3-ethylurea] are 3.41 ± 1.89 µM and 28.8 µM.
Taken in the same sequence, the figures for `CCCNC(=O)Nc1ccc2nc(OC)c(OC)nc2c1` [Compound 6g, 1-(2,3-Dimethoxyquinoxalin-6-yl)-3-propylurea] were 1.63 ± 0.44 µM and 0.489 ± 0.07 µM.
Take `COc1nc2ccc(NC(=O)NC(C)C)cc2nc1OC` [Compound 6h, 1-(2,3-Dimethoxyquinoxalin-6-yl)-3-isopropylurea]: the Ki in assay [1] and in assay [2] was > 1000 µM throughout.
On to `COc1nc2ccc(NC(=O)Nc3ccccc3)cc2nc1OC` [Compound 6i, 1-(2,3-Dimethoxyquinoxalin-6-yl)-3-phenylurea], for which the inhibitory constant (Ki) in assay [1] and in assay [2] was > 1000 µM each time.
Take `COc1ccc2ncc(CNC(C)=O)nc2c1` [Compound 10a, N-[(7-Methoxyquinoxalin-2-yl)methyl]acetamide]: the Ki in assay [1] and in assay [2] was > 1000 µM each time.
For `CCC(=O)NCc1cnc2ccc(OC)cc2n1` [Compound 10b, N-[(7-Methoxyquinoxalin-2-yl)methyl]propionamide], the Ki was > 1000 µM in assay [1] and 0.34 ± 0.15 µM in assay [2].
Turning to `CCCC(=O)NCc1cnc2ccc(OC)cc2n1` [Compound 10c, N-[(7-Methoxyquinoxalin-2-yl)methyl]butyramide], the inhibitory constant (Ki) in assay [1] worked out at 0.21 ± 0.11 µM; in assay [2], 0.1 ± 0.01 µM.
Taken in the same sequence, the figures for `COc1ccc2ncc(CNC(=O)C(C)C)nc2c1` [Compound 10d, N-[(7-Methoxyquinoxalin-2-yl)methyl]isobutyramide] were 0.32 ± 0.04 µM and 0.16 µM.
Regarding `COc1ccc2ncc(CNC(=O)c3ccccc3)nc2c1` [Compound 10e, N-[(7-Methoxyquinoxalin-2-yl)methyl]benzamide], the inhibition constant Ki in assay [1] and in assay [2] was > 1000 µM throughout.
